The source of these data is PMC12290673, “Antileishmanial and Antitoxoplasmal Activities of 1,4-Dihydropyridines” (ACS Omega, 2025).

Where two headings read alike, the source gives them in different places. Bounds are passed on as bounds.

One assay deals with L. major promastigotes. Description: Activity against L. major promastigotes (MTT, 72 h). Type of assay: cell-based, Leishmania major. The note with it: mean ± SD, read-out: EC50 L. major prom. The method, then:
(§1) L. major promastigotes were isolated and maintained according to a described method. BALB/c mice were injected at the hind footpads with 1 × 10^6 L. major metacyclic promastigotes. L. major amastigotes were collected from the infected mice. After 8 weeks had elapsed since inoculation, Schneider’s medium (Invitrogen, USA) containing antibiotics and 10% FBS was used to transform isolated amastigotes into promastigotes by incubation at 26 °C. Amastigote-derived promastigotes with less than five in vitro passages were only used for infection.
To assess the activity of the compounds against L. major promastigotes, 10^6 promastigotes/mL were cultured in 96-well plates in Schneider’s medium with 10% FBS. Then, the compounds or amphotericin B (AmB) were added to obtain the final concentrations (50, 25, 12.5, 6.25, 3.13, 1.65, 0.75, or 0.37 μg mL^–1). Negative control wells contained cultures with DMSO (1%) only. Plates were incubated at 26 °C for 72 h to evaluate the antiproliferative effect. The colorimetric MTT method was used to count viable promastigotes under a microplate absorbance spectrophotometer (xMark, Bio-Rad, USA) at 570 nm. The experiment was performed in triplicate.

The test system of the next assay is L. major amastigotes. Description: Activity against L. major amastigotes in peritoneal macrophages (percentage of infected macrophages, Giemsa, 72 h). Format: cell-based, Leishmania major. The note with it: intracellular amastigotes, mean ± SD, read-out: EC50 L. major ama. The method, then: as §1
(§2) Female BALB/c mouse peritoneal macrophages (6–8 weeks old) were used to culture L. major amastigotes to assess the activity of the compounds against amastigotes. Briefly, 1 mL of 3% Brewer’s thioglycollate medium/mouse was injected into the peritoneal cavity. After 4 days, the abdominal skin was removed to expose the peritoneal wall. Then, 3 mL of RPMI 1640 medium was injected before cells were collected by aspiration, whereupon 96-well plates containing RPMI 1640 medium with 10% FBS were used to culture 5 × 10^4 cells/well, which were incubated at 37 °C under 5% CO2 for 4 h. After washing with PBS, RPMI 1640 medium containing 5 × 10^5 promastigotes were added to each well. Next, the cells were incubated at 37 °C under humidified 5% CO2 for 24 h to enhance infection and differentiation of amastigotes. Washing with PBS several times removed free promastigotes. Fresh complete RPMI 1640 medium containing one of the tested compounds or AmB at the desired final concentration (50, 25, 12.5, 6.25, 3.13, 1.65, 0.75, or 0.37 μg mL^–1) was added and incubated at 37 °C under a humidified 5% CO2 atmosphere for 72 h. DMSO (1%), only in complete RPMI media, was used as the negative control. The percentage of infected macrophages was assessed microscopically after the medium was removed, followed by washing with PBS, fixation with methanol, and staining with Giemsa. The reading was performed in triplicate. Handling of the laboratory animals followed the instructions and rules of the Committee of Research Ethics, Deanship of Scientific Research, Qassim University, permission number 20–03–20.

Assay [1] deals with T. gondii tachyzoites (RH strain). Description: Anti-Toxoplasma activity (infection index in Vero cells, 72 h). The note with it: Toxoplasma gondii, Vero, mean ± SD. Format: cell-based, Toxoplasma gondii. The method, then:
Tachyzoites of the T. gondii RH strain were cultivated in Vero cells according to a published method. Complete RPMI 1640 medium (Invitrogen, USA) with 10% fetal bovine serum (FBS, Invitrogen, USA) was used to culture Vero cells in 96-well plates (5 × 10^3 cells/well in 200 μL of medium), which were incubated at 37 °C and under 5% CO2 for 24 h. This was followed by washing with phosphate-buffered saline (PBS) to remove the medium. Then, RPMI 1640 medium with 2% FBS containing T. gondii tachyzoites (RH strain) at a ratio of 5 (parasite): 1 (Vero cells) was added. After incubation at 37 °C and under 5% CO2 for 5 h, the cells were washed with PBS and overlaid with medium containing one of the tested compounds or atovaquone (ATO) at 50, 25, 12.5, 6.25, 3.13, 1.65, 0.75, or 0.37 μg mL^–1.
After incubation at 37 °C and under 5% CO2 for 72 h, the cells were stained with 1% toluidine before being examined under an inverted photomicroscope (MCD-400, Leica, Japan) to determine the T. gondii infection index (number of infected cells from 200 tested cells). The experiment was performed in triplicate.

The subject of the next assay is Vero cells. Description: Cytotoxicity assay (MTT), Vero cells. Type of assay: cell-based, African Green Monkey. As to conditions: Chlorocebus sabaeus, 72 h, mean ± SD. The method, then:
(§3) The MTT colorimetric assay was conducted to assess the cytotoxicity of the compounds according to a method described previously. Briefly, Vero cells or macrophages were cultured in 96-well plates (5 × 10^3 cells/well/200 μL) in RPMI 1640 medium with 10% FBS at 37 °C and under 5% CO2 for 24 h. Thereafter, PBS was used to wash the cells. Then, the compounds in RPMI complete medium with 10% FBS (at varying concentrations of 50, 25, 12.5, 6.25, 3.13, 1.65, 0.75, or 0.37 μg mL^–1) were added to 96-well plates and incubated for 72 h. Cells treated with a medium containing only DMSO (1%) were used as the negative control. After washing, MTT (1 mg mL^–1 in RPMI 1640 medium) was added to each well. The cells were incubated for 4 h, and the supernatant was removed. Next, 150 μL of DMSO was added, and a microplate absorbance spectrophotometer was applied for colorimetric analysis (λ = 540 nm). Cytotoxic effects were expressed by IC50 values (concentration that caused a 50% reduction of viable cells). The experiment was performed in triplicate.

In the next assay the test system is macrophages. Description: Cytotoxicity assay (MTT), macrophages. Format: cell-based, BALB/c mouse. The note with it: Mus musculus, Macrophage; 72 h, mean ± SD; read-out: IC50 macro. Here is the method: as §2, §3

With `CCOC(=O)C1=C(C)NC2=C(C(=O)CC(C)(C)C2)C1c1ccc(OCc2ccccc2)cc1` (racemic) [Compound 4, (±)-ethyl 4-(4-(benzyloxy)phenyl)-2,7,7-trimethyl-5-oxo-1,4,5,6,7,8-hexahydroquinoline-3-carboxylate], the EC50 (commonly the concentration needed to bring the measured effect to its halfway point) in the assay with L. major promastigotes (Leishmania major) is above 46.7 µM; in the assay on L. major amastigotes (Leishmania major) it was 23.3 ± 3.4 µM; in assay [1], 3.1 ± 0.4 µM. The figures for the IC50 with Vero cells and in the assay with macrophages were 17.5 ± 3 µM and 25.1 ± 3.7 µM, respectively.

Turning to `CCOC(=O)C1=C(C)NC2=C(C(=O)CC(C)(C)C2)C1c1ccccc1[N+](=O)[O-]` (racemic) [Compound 9, (±)-ethyl 2,7,7-trimethyl-4-(2-nitrophenyl)-5-oxo-1,4,5,6,7,8-hexahydroquinoline-3-carboxylate], the EC50 in the assay with L. major promastigotes (Leishmania major) was above 58.2 µM; in the assay with L. major amastigotes (Leishmania major), 13.7 µM; with L. major amastigotes it was 10.6 ± 2.1 µM; in assay [1], 12 ± 1.9 µM. In addition, the figures for the IC50 in the assay with Vero cells and in the assay on macrophages were 4.5 ± 0.7 µM and 12 ± 1.9 µM, respectively.

As to `C[C@@H]1[C@H](O)[C@@H](C)/C=C/C=C/C=C/C=C/C=C/C=C/C=C/[C@H](O[C@@H]2O[C@H](C)[C@@H](O)[C@H](N)[C@@H]2O)C[C@@H]2O[C@](O)(C[C@@H](O)C[C@@H](O)[C@H](O)CC[C@@H](O)C[C@@H](O)CC(=O)O[C@H]1C)C[C@H](O)[C@H]2C(=O)O` [AmB, amphotericin B, reference compound], the IC50 (as a rule, the midpoint of a concentration-inhibition curve) with Vero cells amounted to 10.3 ± 1.2 µM.

Take `CCOC(=O)C1=C(C)NC2=C(C(=O)CC(C)(C)C2)C1c1ccccc1` (stereo not shown) [Compound 1]: the EC50 (in the assay with L. major promastigotes (Leishmania major); with L. major amastigotes (Leishmania major); in assay [1]) was above 61.3 µM each time. For the same compound, the IC50 with Vero cells and with macrophages was above 61.3 µM throughout.

In the case of `CCOC(=O)C1=C(C)NC2=C(C(=O)CC(C)(C)C2)C1c1ccc(C)cc1` (stereo not shown) [Compound 2], the EC50 (in the assay on L. major promastigotes (Leishmania major); in the assay on L. major amastigotes (Leishmania major); in assay [1]) was above 58.8 µM in each case. Moreover, the IC50 was determined as 52.9 ± 9.8 µM in the assay on Vero cells and 47.8 ± 7.6 µM with macrophages.

Turning to `CCOC(=O)C1=C(C)NC2=C(C(=O)CC(C)(C)C2)C1c1ccc(OC)cc1` (stereo not shown) [Compound 3], the EC50 (in the assay on L. major promastigotes (Leishmania major); in the assay with L. major amastigotes (Leishmania major); in assay [1]) was above 56.3 µM throughout. Further, the IC50 with Vero cells amounted to 49.8 ± 8.9 µM; with macrophages, 38.7 ± 6.8 µM.

As for `CCOC(=O)C1=C(C)NC2=C(C(=O)CC(C)(C)C2)C1c1ccc(N(C)C)cc1` (stereo not shown) [Compound 5], the results for the EC50 (in the assay on L. major promastigotes (Leishmania major); in the assay on L. major amastigotes (Leishmania major); in assay [1]) were above 54.4 µM, above 54.4 µM and 29.5 ± 4.1 µM, respectively. The IC50 with Vero cells worked out at 49.4 ± 8.8 µM; in the assay on macrophages it was 49.9 ± 7.4 µM.

As to `CCOC(=O)C1=C(C)NC2=C(C(=O)CC(C)(C)C2)C1c1ccc(Br)cc1` (stereo not shown) [Compound 6], the EC50 in the assay with L. major promastigotes (Leishmania major) is above 49.7 µM; in the assay with L. major amastigotes (Leishmania major) it was above 49.7 µM; in assay [1], 23.4 ± 3.5 µM. The concentration for half-maximal inhibition (IC50) in the assay with Vero cells stood at 17.4 ± 2.9 µM; with macrophages, 23.4 ± 3.5 µM.

With `CCOC(=O)C1=C(C)NC2=C(C(=O)CC(C)(C)C2)C1c1cccc(Cl)c1` (stereo not shown) [Compound 8], the EC50 (with L. major promastigotes (Leishmania major); with L. major amastigotes (Leishmania major); in assay [1]) was above 55.6 µM each time. In addition, the IC50 with Vero cells and in the assay with macrophages was above 55.6 µM throughout.

Consider `CCOC(=O)C1=C(C)NC2=C(C(=O)CC(C)(C)C2)C1c1cccc([N+](=O)[O-])c1` (stereo not shown) [Compound 10], for which the EC50 was above 54.1 µM in the assay on L. major promastigotes (Leishmania major), 26.3 ± 3.7 µM in the assay with L. major amastigotes (Leishmania major) and 16.4 ± 2.5 µM in assay [1]. Further, the IC50 in the assay with Vero cells was found to be 10.7 ± 2.1 µM; in the assay with macrophages, 24.5 ± 3.6 µM.

In the case of `CCOC(=O)C1=C(C)NC2=C(C(=O)CC(C)(C)C2)C1c1ccc(O)c(OC)c1` (stereo not shown) [Compound 11], the EC50 is above 54 µM in the assay on L. major promastigotes (Leishmania major), above 54 µM in the assay with L. major amastigotes (Leishmania major) and 26.5 ± 3.6 µM in assay [1]. Besides, the IC50 in the assay with Vero cells was 45.1 ± 7.9 µM; in the assay with macrophages it was 48 ± 8.1 µM.

Turning to `CCOC(=O)C1=C(C)NC2=C(C(=O)CC(C)(C)C2)C1c1ccco1` (stereo not shown) [Compound 15], the EC50 in the assay on L. major promastigotes (Leishmania major) is below 50 µM; in the assay with L. major promastigotes, 40 ± 6.4 µM; in the assay with L. major amastigotes (Leishmania major), above 51.3 µM; in assay [1] it was above 51.3 µM. The IC50 with Vero cells and in the assay on macrophages was above 51.3 µM in each case.
